The values below come from US20170216252A1, “ANTI-BACTERIAL PYRUVATE KINASE MODULATOR COMPOUNDS, COMPOSITIONS, USES AND METHODS” (SIMON FRASER UNIVERSITY, priority 2014, published 2017).

In brackets after ≈: the same amount, converted by molar mass. Like-named read-outs stand apart in the source and are kept apart here.

Broadly, the IC50 is the concentration at which inhibition is half-maximal. As a reminder, the MIC is the lowest concentration that inhibits growth of the organism. Broadly, the melting point is the temperature, or range, at which the solid turns liquid.

One data set concerns the target T1, MRSA PK (Staphylococcus aureus, UniProt Q6GG09).
T1 construct: His tag (pET-28a(+) vector) (N); made in house; host or cells: E. coli BL-21 (DE3)
Put plainly: MRSA PK activity, continuous LDH-coupled assay. In kind it is biochemical, S. aureus (MRSA strain Sanger 252). Particulars: for fold more potent: compared to 10a. In a few lines:
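Purified His-tagged MRSA PK (15 nM, E. coli-expressed) started reactions run up to 5 min at 30 °C. Activity was followed continuously by LDH-coupled NADH oxidation at 340 nm, with DMSO ≤1%. IC50 came from four-parameter variable-slope fits.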

For another data set, the system named is S. aureus ATCC 29213. Put plainly: In vitro susceptibility, broth microdilution MIC. In kind it is cell-based, Staphylococcus aureus. Put shortly:
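The MIC against S. aureus 29213 was determined by CLSI 2-fold serial broth microdilution in Mueller Hinton broth. Plates were incubated for 18–24 h at 37 °C and read at OD600 with background subtracted. The MIC was the lowest concentration giving complete growth inhibition versus compound-free wells.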

[1] abbreviates: Tables 1-6, 2 mM ADP, 10 mM PEP, 15 nM PK, read-out: IC50.
[2] abbreviates: Staphylococcus aureus, ATCC29213, Tables 1-6 and text, minimum concentration to give >98% inhibition of growth, read-out: MIC.
Where [3] appears, read: read-out: % inhibition at the highest concentration tested (IC50).
[4] abbreviates: Staphylococcus aureus, ATCC29213, Table 8, tested at least in duplicate, differing values all given, read-out: MIC.

T1 sequence (Q6GG09 whole entry): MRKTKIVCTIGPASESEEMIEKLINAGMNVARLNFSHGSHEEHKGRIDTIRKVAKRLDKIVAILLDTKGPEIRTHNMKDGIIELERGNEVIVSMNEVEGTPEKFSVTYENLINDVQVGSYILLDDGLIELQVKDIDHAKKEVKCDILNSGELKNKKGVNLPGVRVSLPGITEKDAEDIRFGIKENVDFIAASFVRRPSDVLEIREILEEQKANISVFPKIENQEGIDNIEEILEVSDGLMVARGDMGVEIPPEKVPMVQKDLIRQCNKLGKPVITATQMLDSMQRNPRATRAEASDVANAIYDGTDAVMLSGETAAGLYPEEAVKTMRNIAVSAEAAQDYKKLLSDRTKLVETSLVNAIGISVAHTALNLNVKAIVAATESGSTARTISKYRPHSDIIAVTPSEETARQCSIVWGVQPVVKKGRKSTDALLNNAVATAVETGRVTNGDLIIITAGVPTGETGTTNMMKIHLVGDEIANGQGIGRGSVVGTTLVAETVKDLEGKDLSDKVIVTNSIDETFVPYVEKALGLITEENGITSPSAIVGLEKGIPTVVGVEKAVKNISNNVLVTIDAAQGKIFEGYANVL

The compound `Brc1ccc2cc(-c3cc4ccccc4[nH]3)[nH]c2c1` [Compound 10a, 6-Bromo-1H,1′H-2,2′-biindole] showed a melting point of 199 to 201 °C. For the same compound, the IC50 at MRSA PK (setting [1]) is 21.4 nM. Also, in the data set on S. aureus ATCC 29213 (setting [2]), the MIC turned out to be 2 µg/mL (≈ 6.43 µM). Further, in the data set on S. aureus ATCC 29213 (compared to 10b), the “fold more potent in the MIC assay” value is reported as “about 8 fold”.

With `Clc1ccc2[nH]c(-c3cc4ccc(Br)cc4[nH]3)cc2c1` [Compound 10d, 6′-Bromo-5-chloro-1H,1′H-2,2′-biindole], the melting point lay in the range of 257 to 259 °C. The IC50 on MRSA PK (setting [1]) was determined as 2 nM. Further, the MIC in the data set on S. aureus ATCC 29213 (setting [2]) is 0.3 µg/mL (≈ 0.868 µM).

Compound `Fc1ccc2[nH]c(-c3cc4ccc(Br)cc4[nH]3)cc2c1` [Compound 10e, 6′-Bromo-5-fluoro-1H,1′H-2,2′-biindole] registered a melting point of 246 to 248 °C. Also, at MRSA PK (setting [1]), the IC50 was 2.8 nM. Besides, the MIC in the data set on S. aureus ATCC 29213 (setting [2]) amounted to 0.3 µg/mL (≈ 0.911 µM).

`COc1ccc2[nH]c(-c3cc4ccc(Br)cc4[nH]3)cc2c1` [Compound 10f, 6′-Bromo-5-methoxy-1H,1′H-2,2′-biindole] returned a melting point of 240 to 241 °C. At MRSA PK (setting [1]), the IC50 worked out at 2.5 nM. For the same compound, the MIC in the data set with S. aureus ATCC 29213 (setting [2]) was greater than 64 µg/mL.

`Brc1ccc2cc(-c3cc4cc(-c5ccccc5)ccc4[nH]3)[nH]c2c1` [Compound 10g, 6′-Bromo-5-phenyl-1H,1′H-2,2′-biindole]: the melting point was 237 to 239 °C. Moreover, the half-maximal inhibitory concentration (IC50) on MRSA PK (setting [1]) was found to be 2.2 nM. Moreover, the MIC in the data set on S. aureus ATCC 29213 (setting [2]) is greater than 64 µg/mL.

For `Brc1cc2cc(-c3cc4ccccc4[nH]3)[nH]c2cc1Br` [Compound 10j, 5,6-Dibromo-1H,1′H-2,2′-biindole], the melting point is 233 °C (dec.). The inhibition at 10 µM on MRSA PK (setting [3]) is 39%.

For the compound `Cn1c(-c2cc3cc(Br)ccc3[nH]2)cc2ccc(Br)cc21` [Compound 12b, 5′,6-Dibromo-1-methyl-1H,2′H-2,2′-biindole], the melting point was in the range of 192 to 194 °C. Besides, the inhibition at 10 µM at MRSA PK (setting [3]) was determined as 25%.

Consider `COCn1c(-c2cc3ccc(Br)cc3[nH]2)cc2cc(Br)ccc21` [Compound 12c, 5,6′-Dibromo-1-(methoxymethyl)-1H,1′H-2,2′-biindole], for which the melting point lay within 199 to 201 °C. The IC50 on MRSA PK (setting [1]) is 1.9 nM. Besides, in the data set with S. aureus ATCC 29213 (setting [2]), the MIC is greater than 64 µg/mL.

`O=C(O)Cn1c(-c2cc3ccc(Br)cc3[nH]2)cc2cc(Br)ccc21` [Compound 14, 2-(5,6′-Dibromo-1H,1′H-[2,2′-biindol]-1-yl)acetic acid]: the melting point lay in the range of 321 to 323 °C. Also, at MRSA PK (setting [1]), the IC50 was 11.1 nM. For the same compound, the MIC in the data set with S. aureus ATCC 29213 (setting [2]) is greater than 64 µg/mL.

As to `O=C(Cn1c(-c2cc3ccc(Br)cc3[nH]2)cc2cc(Br)ccc21)N1CCOCC1` [Compound 15, 2-(5,6′-dibromo-1H,1′H-[2,2′-biindol]-1-yl)-1-morpholinoethanone], the melting point lay in the range of 320 to 322 °C. The IC50 on MRSA PK (setting [1]) turned out to be 6 nM. For the same compound, the MIC with S. aureus ATCC 29213 (setting [2]) is greater than 64 µg/mL.

`Brc1ccc2cc(-c3cc4ccccc4s3)[nH]c2c1` [Compound 22c, 2-(Benzo[b]thiophen-2-yl)-6-bromo-1H-indole]: the melting point was 250 to 252 °C. For the same compound, at MRSA PK (setting [1]), the IC50 is 14 nM. In the data set on S. aureus ATCC 29213 (setting [2]), the MIC is greater than 64 µg/mL.

`Brc1ccc2[nH]c(-c3nc4ccccc4s3)cc2c1` [Compound 22d, 2-(5-Bromo-1H-indol-2-yl)benzo[d]thiazole] yielded a melting point of 208 to 210 °C. Besides, on MRSA PK (setting [1]), the half-inhibitory concentration (IC50) was 358 nM. For the same compound, the MIC in the data set with S. aureus ATCC 29213 (setting [2]) is greater than 64 µg/mL.

For `Brc1ccc2[nH]c(-c3cc4ccccc4o3)cc2c1` [Compound 22e, 2-(Benzofuran-2-yl)-5-bromo-1H-indole], the melting point lay within 236 to 238 °C. At MRSA PK (setting [3]), the inhibition at 10 µM was 45%.

`Brc1ccc2[nH]c(-c3cc4ccccc4s3)cc2c1` [Compound 22f, 2-(Benzo[b]thiophen-2-yl)-5-bromo-1H-indole] had a melting point of 269 to 271 °C. The inhibition at 1 µM on MRSA PK (setting [3]) is 42%. Also, the MIC with S. aureus ATCC 29213 (setting [2]) is greater than 64 µg/mL.

Take `Brc1ccc2[nH]c(-c3nc4ccc(Br)cc4s3)cc2c1` [Compound 22g, 6-Bromo-2-(5-bromo-1H-indol-2-yl)benzo[d]thaizole]: the melting point lay in the range of 246 to 248 °C. Further, the IC50 at MRSA PK (setting [1]) is 4.1 nM. Further, on MRSA PK, the fold more potent result is given as “about 5 fold”. Moreover, in the data set on S. aureus ATCC 29213 (setting [2]), the MIC was greater than 64 µg/mL.

Take `Brc1ccc2cc(C#Cc3cc4ccccc4[nH]3)[nH]c2c1` [Compound 25a, 2-((1H-indol-2-yl)ethynyl)-6-bromo-1H-indole]: the melting point lay within 240 to 242 °C. In addition, the half-maximal inhibitory concentration (IC50) on MRSA PK (setting [1]) stood at 7.1 nM. On MRSA PK, this compound returned a fold more potent of 3 fold. Further, the MIC in the data set on S. aureus ATCC 29213 (setting [2]) is greater than 64 µg/mL.

Consider `Brc1ccc2[nH]c(CCc3cc4ccc(Br)cc4[nH]3)cc2c1` [Compound 28b, 6-bromo-2-(2-(5-bromo-1H-indol-2-yl)ethyl)-1H-indole], for which the melting point lay in the range of 208 to 210 °C. Further, on MRSA PK (setting [1]), the IC50 was determined as 6.3 nM. Besides, in the data set on S. aureus ATCC 29213 (setting [2]), the MIC was greater than 64 µg/mL.

Regarding `Brc1ccc2cc(-c3ccc(-c4cc5ccccc5[nH]4)cc3)[nH]c2c1` [Compound 33c, 2-(4-(1H-indol-2-yl)phenyl)-6-bromo-1H-indole], the melting point is greater than 300 °C. For the same compound, the IC50 at MRSA PK (setting [1]) worked out at 5.6 nM. The MIC with S. aureus ATCC 29213 (setting [2]) is greater than 64 µg/mL.

The compound `Brc1ccc2cc(-c3cccc(-c4cc5ccccc5[nH]4)c3)[nH]c2c1` [Compound 33f, 2-(3-(1H-indol-2-yl)phenyl)-6-bromo-1H-indole] returned a melting point of 224 to 226 °C. In addition, on MRSA PK (setting [3]), the inhibition at 10 µM was determined as 36%.

`Brc1ccc2c(c1)cc(-c1cc3ccc(Br)cc3[nH]1)n2CCN1CCCCC1` [Compound 72, 5,6′-dibromo-1-(2-(piperidin-1-yl)ethyl)-1H,1′H-2,2′-biindole] had a melting point of 102 to 104 °C. The IC50 against MRSA PK was 3.7 nM. In addition, the MIC in the data set with S. aureus ATCC 29213 (setting [2]) was greater than 64 µg/mL.

The compound `COC(=O)c1c(NCc2cn3ccccc3n2)[nH]c2cc(Br)ccc12` [Compound 166, Methyl 6-bromo-2-(imidazo[1,2-a]pyridin-2-ylmethylamino)-1H-indole-3-carboxylate] yielded an IC50 against MRSA PK greater than 1000 nM. For the same compound, the MIC with S. aureus ATCC 29213 (setting [4]) is greater than 64 µg/mL.

For the compound `O=C(c1c(C#Cc2ncccn2)[nH]c2cc(Br)ccc12)C(F)(F)F` [Compound 169, 1-(6-Bromo-2-(pyrimidin-2-ylethynyl)-1H-indol-3-yl)-2,2,2-trifluoroethanone], the IC50 against MRSA PK was greater than 100000 nM. For the same compound, the MIC in the data set with S. aureus ATCC 29213 (setting [4]) was greater than 64 µg/mL.

Consider `O=C(c1c(CCc2cc(Cl)cc(Cl)c2)[nH]c2cc(Br)ccc12)C(F)(F)F` [Compound 171, 1-(6-Bromo-2-(3,5-dichlorophenethyl)-1H-indol-3-yl)-2,2,2-trifluoroethanone], for which the half-maximal inhibitory concentration (IC50) against MRSA PK is greater than 1000 nM. Further, the MIC in the data set with S. aureus ATCC 29213 (setting [4]) was 1 µg/mL (≈ 2.15 µM).

Regarding `O=C(c1c(CCc2ccc(Cl)nc2)[nH]c2cc(Br)ccc12)C(F)(F)F` [Compound 173, 1-(6-Bromo-2-(2-(6-chloropyridin-3-yl)ethyl)-1H-indol-3-yl)-2,2,2-trifluoroethanone], the IC50 against MRSA PK is greater than 1000 nM. For the same compound, the MIC in the data set with S. aureus ATCC 29213 (setting [4]) is greater than 64 µg/mL.

In turn, `O=C(c1c(/C=C/c2ccc(Br)cn2)[nH]c2cc(Br)ccc12)C(F)(F)F` [Compound 174, (E)-1-(6-Bromo-2-(2-(5-bromopyridin-2-yl)vinyl)-1H-indol-3-yl)-2,2,2-trifluoroethanone] had an IC50 against MRSA PK greater than 1000 nM. In addition, in the data set on S. aureus ATCC 29213 (setting [4]), the MIC came to 32 µg/mL (≈ 67.5 µM).

The compound `O=C(c1c(/C=C/c2ccc(Cl)cc2)[nH]c2cc(Br)c(F)cc12)C(F)(F)F` [Compound 175, (E)-1-(6-Bromo-2-(4-chlorostyryl)-5-fluoro-1H-indol-3-yl)-2,2,2-trifluoroethanone] came in with an IC50 against MRSA PK of 100 to 1000 nM. The MIC in the data set on S. aureus ATCC 29213 (setting [4]) was 2 µg/mL (≈ 4.48 µM).

In the case of `O=C(c1c(-c2cc3ccccc3[nH]2)[nH]c2cc(Br)ccc12)C(F)(F)F` [Compound 177, 1-(6-bromo-1H,1′H-[2,2′-biindol]-3-yl)-2,2,2-trifluoroethan-1-one], the IC50 on MRSA PK is greater than 1000 nM. Also, the MIC in the data set on S. aureus ATCC 29213 (setting [4]) stood at 2 µg/mL (≈ 4.91 µM); in the data set with S. aureus ATCC 29213 (Table 8, tested at least in duplicate, differing values all given), 1 µg/mL (≈ 2.46 µM).

With `COc1ccc2[nH]c(-c3[nH]c4cc(Br)ccc4c3C(=O)C(F)(F)F)cc2c1` [Compound 179, 1-(6-bromo-5′-methoxy-1H,1′H-[2,2′-biindol]-3-yl)-2,2,2-trifluoroethan-1-one], the IC50 against MRSA PK was less than 50 nM. For the same compound, the MIC with S. aureus ATCC 29213 (setting [4]) was 64 µg/mL (≈ 146 µM).
